# Measured values reported in ChEMBL document CHEMBL1130780, “Synthesis of a cosalane analog with an extended polyanionic pharmacophore conferring enhanced potency as an anti-HIV agent” (Bioorg Med Chem Lett, 1998).
# Experiments:
# [1] = tested on: CEM-SS; assay: The compound was tested for inhibition of HIV-1 attachment to CEM-SS cells.; format: functional, cell-based; settings: Homo sapiens
# [2] = tested on: CEM-SS; assay: Inhibitory activity against cytopathic effect of HIV-1RF in CEM-SS cells.; format: functional, cell-based; settings: Homo sapiens
# [3] = The compound was tested for inhibitory against fusion of HL-2/3 cells towards HeLa-CD4-LTR-beta-gal cells.; format: functional, cell-based, Homo sapiens
# [4] = tested on: CEM-SS; assay: Inhibitory activity against cytopathic effect of HIV-IIIB strain in CEM-SS cells.; format: functional, cell-based; settings: Homo sapiens
# [5] = tested on: CEM-SS; assay: Inhibitory activity against cytopathic effect of VIHU(NSI) clinical isolate in CEM-SS cells.; format: functional, cell-based; settings: Homo sapiens
# [6] = The compound was tested for inhibitory activity against gp120 binding to CD4 of peripheral blood lymphocytes (PBL); format: functional, Homo sapiens
SMILES,IC50 [1] [µM],EC50 [2] [µM],IC50 [3] [µM],EC50 [4] [µM],EC50 [5] [µM],IC50 [6] [µM]
CC(C)CCCC(C)[C@H]1CC[C@H]2[C@@H]3CCC4C[C@@H](CCC=C(c5cc(Cl)c(OCc6ccc(C(=O)O)cc6)c(C(=O)O)c5)c5cc(Cl)c(OCc6ccc(C(=O)O)cc6)c(C(=O)O)c5)CC[C@]4(C)[C@H]3CC[C@]12C (stereo partly specified),72,0.55,2.7,,,
CC(C)CCCC(C)[C@H]1CC[C@H]2[C@@H]3CCC4C[C@@H](CCC=C(c5cc(Cl)c(O)c(C(=O)O)c5)c5cc(Cl)c(O)c(C(=O)O)c5)CC[C@]4(C)[C@H]3CC[C@]12C (stereo partly specified),,,,3.4,80.2,7.8
